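Cultured in 96-well plates, cells were exposed to test compound for 48 hours across five concentrations. TGI is the concentration that stops growth completely.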

For one test, the system named is OVCAR-4 ovarian. Description: NCI tumour cell line growth inhibition, 48 h.
As to `Nc1c(Cl)ncnc1N[C@@H]1C[C@H]1CO`, the TGI was above 100 µM.

In turn, `C=CCCC(=O)CC(O)(C(F)(F)F)C(F)(F)F` displayed a TGI above 100 µM.

`CC(=O)c1ccc2c3c1[C@@H]1O[C@@H]1c1cccc(c1-3)[C@@H]1O[C@H]21` showed a TGI of 27.3 µM.

As for `CCN1C(=O)C(=C/C=C/c2ccc([N+](=O)[O-])cc2)C(=O)N(CC)C1=S`, the TGI was above 100 µM.

The test system of the next test is SK-MEL-5 melanoma. Briefly: NCI tumour cell line growth inhibition, 48 h.
`Nc1c(Cl)ncnc1N[C@@H]1C[C@H]1CO` gave a TGI above 100 µM.

`C=CCCC(=O)CC(O)(C(F)(F)F)C(F)(F)F` registered a TGI above 100 µM.

For `CC(=O)c1ccc2c3c1[C@@H]1O[C@@H]1c1cccc(c1-3)[C@@H]1O[C@H]21`, the TGI is 26 µM.

For `CCN1C(=O)C(=C/C=C/c2ccc([N+](=O)[O-])cc2)C(=O)N(CC)C1=S`, the TGI is 42.8 µM.

For the next test, the system named is HOP-92 NSCLC. Briefly: NCI tumour cell line growth inhibition, 48 h.
On to `Nc1c(Cl)ncnc1N[C@@H]1C[C@H]1CO`, for which the TGI was above 100 µM.

In turn, `C=CCCC(=O)CC(O)(C(F)(F)F)C(F)(F)F` gave a TGI above 100 µM.

As to `CC(=O)c1ccc2c3c1[C@@H]1O[C@@H]1c1cccc(c1-3)[C@@H]1O[C@H]21`, the TGI turned out to be 29.7 µM.

With `CCN1C(=O)C(=C/C=C/c2ccc([N+](=O)[O-])cc2)C(=O)N(CC)C1=S`, the TGI turned out to be 34.2 µM.

A further test deals with SNB-75 CNS. Briefly: NCI tumour cell line growth inhibition, 48 h.
The molecule `Nc1c(Cl)ncnc1N[C@@H]1C[C@H]1CO` came in with a TGI above 100 µM.

The molecule `C=CCCC(=O)CC(O)(C(F)(F)F)C(F)(F)F` registered a TGI above 100 µM.

In the case of `CC(=O)c1ccc2c3c1[C@@H]1O[C@@H]1c1cccc(c1-3)[C@@H]1O[C@H]21`, the TGI is 34.5 µM.

Another test relates to OVCAR-8 ovarian. Description: NCI tumour cell line growth inhibition, 48 h.
For `Nc1c(Cl)ncnc1N[C@@H]1C[C@H]1CO`, the TGI is above 100 µM.

Molecule `C=CCCC(=O)CC(O)(C(F)(F)F)C(F)(F)F` showed a TGI above 100 µM.

Molecule `CC(=O)c1ccc2c3c1[C@@H]1O[C@@H]1c1cccc(c1-3)[C@@H]1O[C@H]21` yielded a TGI of 18.1 µM.

`CCN1C(=O)C(=C/C=C/c2ccc([N+](=O)[O-])cc2)C(=O)N(CC)C1=S` came in with a TGI of 39.7 µM.

The subject of another test is SW-620 colon. Briefly: NCI tumour cell line growth inhibition, 48 h.
As for `Nc1c(Cl)ncnc1N[C@@H]1C[C@H]1CO`, the TGI is above 100 µM.

In turn, `C=CCCC(=O)CC(O)(C(F)(F)F)C(F)(F)F` had a TGI above 100 µM.

Regarding `CC(=O)c1ccc2c3c1[C@@H]1O[C@@H]1c1cccc(c1-3)[C@@H]1O[C@H]21`, the TGI turned out to be 7.99 µM.

Regarding `CCN1C(=O)C(=C/C=C/c2ccc([N+](=O)[O-])cc2)C(=O)N(CC)C1=S`, the TGI came out at 36.8 µM.

For the next test, the system named is MOLT-4 leukemia. Description: NCI tumour cell line growth inhibition, 48 h.
Molecule `Nc1c(Cl)ncnc1N[C@@H]1C[C@H]1CO` yielded a TGI above 100 µM.

Consider `C=CCCC(=O)CC(O)(C(F)(F)F)C(F)(F)F`, for which the TGI is above 100 µM.

`CC(=O)c1ccc2c3c1[C@@H]1O[C@@H]1c1cccc(c1-3)[C@@H]1O[C@H]21` displayed a TGI above 100 µM.

Molecule `CCN1C(=O)C(=C/C=C/c2ccc([N+](=O)[O-])cc2)C(=O)N(CC)C1=S` registered a TGI above 100 µM.

In a further test the test system is NCI-H522 lung. Description: NCI tumour cell line growth inhibition, 48 h.
In the case of `Nc1c(Cl)ncnc1N[C@@H]1C[C@H]1CO`, the TGI was above 100 µM.

Molecule `C=CCCC(=O)CC(O)(C(F)(F)F)C(F)(F)F` came in with a TGI above 100 µM.

On to `CC(=O)c1ccc2c3c1[C@@H]1O[C@@H]1c1cccc(c1-3)[C@@H]1O[C@H]21`, for which the TGI stood at 13 µM.

For a further test, the system named is RXF 393 renal. Description: NCI tumour cell line growth inhibition, 48 h.
With `Nc1c(Cl)ncnc1N[C@@H]1C[C@H]1CO`, the TGI was above 100 µM.

For `C=CCCC(=O)CC(O)(C(F)(F)F)C(F)(F)F`, the TGI is above 100 µM.

On to `CC(=O)c1ccc2c3c1[C@@H]1O[C@@H]1c1cccc(c1-3)[C@@H]1O[C@H]21`, for which the TGI came to 25.8 µM.

`CCN1C(=O)C(=C/C=C/c2ccc([N+](=O)[O-])cc2)C(=O)N(CC)C1=S`: the TGI came to 33.1 µM.

The test system of another test is KM12 colon. Briefly: NCI tumour cell line growth inhibition, 48 h.
`Nc1c(Cl)ncnc1N[C@@H]1C[C@H]1CO` yielded a TGI above 100 µM.

`C=CCCC(=O)CC(O)(C(F)(F)F)C(F)(F)F` registered a TGI above 100 µM.

In the case of `CC(=O)c1ccc2c3c1[C@@H]1O[C@@H]1c1cccc(c1-3)[C@@H]1O[C@H]21`, the TGI amounted to 21.4 µM.

Molecule `CCN1C(=O)C(=C/C=C/c2ccc([N+](=O)[O-])cc2)C(=O)N(CC)C1=S` came in with a TGI of 60.7 µM.

The subject of another test is MDA-MB-435. Description: NCI tumour cell line growth inhibition, 48 h.
Molecule `Nc1c(Cl)ncnc1N[C@@H]1C[C@H]1CO` had a TGI above 100 µM.

Consider `C=CCCC(=O)CC(O)(C(F)(F)F)C(F)(F)F`, for which the TGI is above 100 µM.

In turn, `CC(=O)c1ccc2c3c1[C@@H]1O[C@@H]1c1cccc(c1-3)[C@@H]1O[C@H]21` showed a TGI of 25.7 µM.

For the molecule `CCN1C(=O)C(=C/C=C/c2ccc([N+](=O)[O-])cc2)C(=O)N(CC)C1=S`, the TGI turned out to be 47.7 µM.

The next test concerns HS 578T breast. Briefly: NCI tumour cell line growth inhibition, 48 h.
For the molecule `Nc1c(Cl)ncnc1N[C@@H]1C[C@H]1CO`, the TGI was above 100 µM.

`C=CCCC(=O)CC(O)(C(F)(F)F)C(F)(F)F` had a TGI above 100 µM.

With `CC(=O)c1ccc2c3c1[C@@H]1O[C@@H]1c1cccc(c1-3)[C@@H]1O[C@H]21`, the TGI worked out at 70.7 µM.

The molecule `CCN1C(=O)C(=C/C=C/c2ccc([N+](=O)[O-])cc2)C(=O)N(CC)C1=S` had a TGI of 55.1 µM.

Another test has as its system T-47D breast. Briefly: NCI tumour cell line growth inhibition, 48 h.
As for `Nc1c(Cl)ncnc1N[C@@H]1C[C@H]1CO`, the TGI is above 100 µM.

The molecule `C=CCCC(=O)CC(O)(C(F)(F)F)C(F)(F)F` returned a TGI above 100 µM.

The molecule `CC(=O)c1ccc2c3c1[C@@H]1O[C@@H]1c1cccc(c1-3)[C@@H]1O[C@H]21` displayed a TGI of 23.7 µM.

Regarding `CCN1C(=O)C(=C/C=C/c2ccc([N+](=O)[O-])cc2)C(=O)N(CC)C1=S`, the TGI was above 100 µM.

In another test the test system is K-562 leukemia. Briefly: NCI tumour cell line growth inhibition, 48 h.
`Nc1c(Cl)ncnc1N[C@@H]1C[C@H]1CO` returned a TGI above 100 µM.

`C=CCCC(=O)CC(O)(C(F)(F)F)C(F)(F)F` displayed a TGI above 100 µM.

Take `CC(=O)c1ccc2c3c1[C@@H]1O[C@@H]1c1cccc(c1-3)[C@@H]1O[C@H]21`: the TGI was above 100 µM.

Molecule `CCN1C(=O)C(=C/C=C/c2ccc([N+](=O)[O-])cc2)C(=O)N(CC)C1=S` registered a TGI of 48.4 µM.

The next test has as its system OVCAR-5 ovarian. Description: NCI tumour cell line growth inhibition, 48 h.
`Nc1c(Cl)ncnc1N[C@@H]1C[C@H]1CO`: the TGI is above 100 µM.

The values above are taken from PubChem BioAssay (NCI).
